test system: not listed separately; test: MTT cytotoxicity assay in MDCK cells; format: cell-based, Canine; conditions: dog
Method: (§1) The cytotoxic effects of the test compounds on MDCK and Vero cell lines were evaluated utilizing the 3-(4,5-dimethylthiazol-2-yl)-2,5-diphenyltetrazolium bromide (MTT) assay. In brief, cells were seeded in 96-well plates and maintained in complete growth medium. After an overnight incubation period, this medium was aspirated and replaced with serum-free DMEM containing the compounds at predetermined concentrations. After 48 h of treatment, MTT dissolved in PBS was introduced into each well to achieve a final concentration of 0.5 mg/mL. Subsequent incubation at 37 °C for 2 h facilitated formazan crystal formation. The medium was then aspirated, and DMSO was added to solubilize the formazan crystals. Absorbance measurements at 540 nm were conducted using a CLARIOstar microplate reader.

Compound	CC50 at 48 h
CC1(c2ccccc2)CC(C)(C)N(C(=O)CSc2nc(O)cc(CSc3ccc(Cl)cc3)n2)c2ccccc21 (centres unmarked) [Compound 1]	34.5 ± 1.58 µM
O=C(CCCCCn1c(=O)c2sccc2n(CC(=O)NCCC2=CCCCC2)c1=O)NCc1ccc(F)cc1 [Compound 2]	> 200 µM
COC(=O)c1ccc(NC(=O)CSc2nc(-c3sc(-c4ccccc4)nc3C)cc(=O)[nH]2)cc1 [Compound 3]	> 200 µM
CCCCc1nn2c(=O)cc(CSc3nc4ccc(NC(C)=O)cc4s3)nc2s1 [Compound 4]	> 200 µM
O=C(COc1ccccc1)Nc1ccc(N2CCN(c3ccccc3F)CC2)cc1C(=O)O [Compound 5]	> 200 µM
CC(=O)c1ccc(N2CCN(C(=O)c3cc4c(=O)n(C)c5ccccc5c4s3)CC2)cc1 [Compound 6]	> 200 µM
O=C(Cc1cccs1)Nc1ccc(N2CCN(c3ccccc3Cl)CC2)cc1C(=O)O [Compound 7]	> 200 µM
CN1C(=O)c2ccccc2Sc2cc(-c3noc(CNC(=O)Cc4ccc(Cl)cc4)n3)ccc21 [Compound 8]	> 200 µM
Cc1ccc(-c2onc3ccc(-c4cc(C(=O)O)c5ccccc5n4)cc23)cc1 [Compound 9]	> 200 µM
Cc1ccc(-c2onc3ccc(-c4cc(C(=O)O)c5cc(C)ccc5n4)cc23)cc1 [Compound 10]	> 200 µM
Cc1cc2nc(C)c(C(=O)O)n2cc1-c1ccc(-c2ccccc2)cc1 [Compound 11, 6-([1,1′-Biphenyl]-4-yl)-2,7-dimethylimidazo[1,2-a]pyridine-3-carboxylic acid]	> 200 µM
Cc1nc2ccc(-c3ccc(-c4ccccc4)cc3)cn2c1C(=O)O [Compound 12, 6-([1,1′-Biphenyl]-4-yl)-2-methylimidazo[1,2-a]pyridine-3-carboxylic acid]	> 200 µM
Cc1nc2ncc(-c3ccc(-c4ccccc4)cc3)cn2c1C(=O)O [Compound 13, 6-([1,1′-Biphenyl]-4-yl)-2-methylimidazo [1,2-a]pyrimidine-3-carboxylic acid]	> 200 µM
CCOC(=O)c1c(C)nc2ccc(-c3ccc(-c4ccccc4)cc3)cn12 [Compound 14, Ethyl 6-([1,1′-biphenyl]-4-yl)-2-methylimidazo[1,2-a]pyridine-3-carboxylate]	> 200 µM
CCOC(=O)c1c(C)nc2cc(C)c(-c3ccc(-c4ccccc4)cc3)cn12 [Compound 15, Ethyl 6-([1,1′-biphenyl]-4-yl)-2,7-dimethylimidazo[1,2-a]pyridine-3-carboxylate]	> 200 µM
CCOC(=O)c1c(C)nc2ncc(-c3ccc(-c4ccccc4)cc3)cn12 [Compound 16, Ethyl 6-([1,1′-biphenyl]-4-yl)-2-methylimidazo[1,2-a]pyrimidine-3-carboxylate]	> 200 µM
C/C(O)=C(\C#N)C(=O)Nc1ccc(C(F)(F)F)cc1 [Compound 17, teriflunomide, reference compound]	181 ± 16.4 µM

test system: DHODH; test: not given; conditions: competing with ubiquinone; read-out: IC50 (DHODH inhibition); cited from earlier work

Compound	IC50
C/C(O)=C(\C#N)C(=O)Nc1ccc(C(F)(F)F)cc1 [Compound 17, teriflunomide, reference compound]	[…]

same assay, conditions: enhanced selectivity; read-out: IC50; cited from earlier work

Compound	IC50
COc1cccc(-c2ccc(NC(=O)C3=C(C(=O)O)CCC3)c(F)c2)c1 [vidofludimus]	41 to 160 nM

test system: SARS-CoV-2; test: microbe, parasite or virus in culture; format: cell-based; conditions: Severe acute respiratory syndrome coronavirus 2

Compound	IC50
CCC(CC)COC(=O)[C@H](C)N[P@](=O)(OC[C@H]1O[C@@](C#N)(c2ccc3c(N)ncnn23)[C@H](O)[C@@H]1O)Oc1ccccc1 [Remdesivir, reference compound]	4.95 ± 0.78 µM

same assay, conditions: Severe acute respiratory syndrome coronavirus 2; SARS-CoV-2, Vero-ACE2-TMPRSS2 cells, plaque assay; read-out: IC50

Compound	IC50
Cc1cc2nc(C)c(C(=O)O)n2cc1-c1ccc(-c2ccccc2)cc1 [Compound 11, 6-([1,1′-Biphenyl]-4-yl)-2,7-dimethylimidazo[1,2-a]pyridine-3-carboxylic acid]	3.6 ± 0.67 µM
Cc1nc2ccc(-c3ccc(-c4ccccc4)cc3)cn2c1C(=O)O [Compound 12, 6-([1,1′-Biphenyl]-4-yl)-2-methylimidazo[1,2-a]pyridine-3-carboxylic acid]	> 200 µM
Cc1nc2ncc(-c3ccc(-c4ccccc4)cc3)cn2c1C(=O)O [Compound 13, 6-([1,1′-Biphenyl]-4-yl)-2-methylimidazo [1,2-a]pyrimidine-3-carboxylic acid]	105 ± 5.19 µM
CCOC(=O)c1c(C)nc2ccc(-c3ccc(-c4ccccc4)cc3)cn12 [Compound 14, Ethyl 6-([1,1′-biphenyl]-4-yl)-2-methylimidazo[1,2-a]pyridine-3-carboxylate]	> 200 µM
CCOC(=O)c1c(C)nc2cc(C)c(-c3ccc(-c4ccccc4)cc3)cn12 [Compound 15, Ethyl 6-([1,1′-biphenyl]-4-yl)-2,7-dimethylimidazo[1,2-a]pyridine-3-carboxylate]	> 200 µM
CCOC(=O)c1c(C)nc2ncc(-c3ccc(-c4ccccc4)cc3)cn12 [Compound 16, Ethyl 6-([1,1′-biphenyl]-4-yl)-2-methylimidazo[1,2-a]pyrimidine-3-carboxylate]	> 200 µM
C/C(O)=C(\C#N)C(=O)Nc1ccc(C(F)(F)F)cc1 [Compound 17, teriflunomide, reference compound]	26.1 ± 4.32 µM

test system: not given; test: not given; conditions: read-out: CC50 (hematological toxicity); cited from earlier work

Compound	CC50
Cc1c(-c2ccc(-c3ccccc3F)cc2)nc2ccc(F)cc2c1C(=O)O [Compound 18, brequinar]	> 5 µM

test system: not listed separately; test: MTT cytotoxicity assay in Vero cells; format: cell-based; conditions: African green monkey, Vero-ACE2-TMPRSS2 cells
Method: A Vero-ACE2-TMPRSS2 (labelled ‘Vero’ hereafter) cell line was used for SARS-CoV-2.
as §1

Compound	CC50 at 48 h
Cc1cc2nc(C)c(C(=O)O)n2cc1-c1ccc(-c2ccccc2)cc1 [Compound 11, 6-([1,1′-Biphenyl]-4-yl)-2,7-dimethylimidazo[1,2-a]pyridine-3-carboxylic acid]	> 200 µM
Cc1nc2ccc(-c3ccc(-c4ccccc4)cc3)cn2c1C(=O)O [Compound 12, 6-([1,1′-Biphenyl]-4-yl)-2-methylimidazo[1,2-a]pyridine-3-carboxylic acid]	> 200 µM
Cc1nc2ncc(-c3ccc(-c4ccccc4)cc3)cn2c1C(=O)O [Compound 13, 6-([1,1′-Biphenyl]-4-yl)-2-methylimidazo [1,2-a]pyrimidine-3-carboxylic acid]	> 200 µM
CCOC(=O)c1c(C)nc2ccc(-c3ccc(-c4ccccc4)cc3)cn12 [Compound 14, Ethyl 6-([1,1′-biphenyl]-4-yl)-2-methylimidazo[1,2-a]pyridine-3-carboxylate]	> 200 µM
CCOC(=O)c1c(C)nc2cc(C)c(-c3ccc(-c4ccccc4)cc3)cn12 [Compound 15, Ethyl 6-([1,1′-biphenyl]-4-yl)-2,7-dimethylimidazo[1,2-a]pyridine-3-carboxylate]	> 200 µM
CCOC(=O)c1c(C)nc2ncc(-c3ccc(-c4ccccc4)cc3)cn12 [Compound 16, Ethyl 6-([1,1′-biphenyl]-4-yl)-2-methylimidazo[1,2-a]pyrimidine-3-carboxylate]	> 200 µM
C/C(O)=C(\C#N)C(=O)Nc1ccc(C(F)(F)F)cc1 [Compound 17, teriflunomide, reference compound]	> 200 µM

test system: influenza A virus (A/PR/8/34(H1N1)); test: microbe, parasite or virus in culture; format: cell-based; conditions: A/PR/8/34(H1N1), MDCK cells, plaque reduction; read-out: IC50

Compound	IC50
Cc1nc2ccc(-c3ccc(-c4ccccc4)cc3)cn2c1C(=O)O [Compound 12, 6-([1,1′-Biphenyl]-4-yl)-2-methylimidazo[1,2-a]pyridine-3-carboxylic acid]	100 ± 1.13 µM

same assay, conditions: Influenza A virus, MDCK

Compound	IC50
CC1(c2ccccc2)CC(C)(C)N(C(=O)CSc2nc(O)cc(CSc3ccc(Cl)cc3)n2)c2ccccc21 (centres unmarked) [Compound 1]	36.8 ± 2.36 µM
O=C(CCCCCn1c(=O)c2sccc2n(CC(=O)NCCC2=CCCCC2)c1=O)NCc1ccc(F)cc1 [Compound 2]	> 200 µM
COC(=O)c1ccc(NC(=O)CSc2nc(-c3sc(-c4ccccc4)nc3C)cc(=O)[nH]2)cc1 [Compound 3]	> 200 µM
CCCCc1nn2c(=O)cc(CSc3nc4ccc(NC(C)=O)cc4s3)nc2s1 [Compound 4]	66.2 ± 6.29 µM
O=C(COc1ccccc1)Nc1ccc(N2CCN(c3ccccc3F)CC2)cc1C(=O)O [Compound 5]	> 200 µM
CC(=O)c1ccc(N2CCN(C(=O)c3cc4c(=O)n(C)c5ccccc5c4s3)CC2)cc1 [Compound 6]	4.85 ± 0.58 µM
O=C(Cc1cccs1)Nc1ccc(N2CCN(c3ccccc3Cl)CC2)cc1C(=O)O [Compound 7]	17.2 ± 1.19 µM
CN1C(=O)c2ccccc2Sc2cc(-c3noc(CNC(=O)Cc4ccc(Cl)cc4)n3)ccc21 [Compound 8]	13.4 ± 2.45 µM
Cc1ccc(-c2onc3ccc(-c4cc(C(=O)O)c5ccccc5n4)cc23)cc1 [Compound 9]	7.35 ± 1.65 µM
Cc1ccc(-c2onc3ccc(-c4cc(C(=O)O)c5cc(C)ccc5n4)cc23)cc1 [Compound 10]	1.75 ± 0.28 µM

same assay, conditions: Influenza A virus, MDCK, A/PR/8/34(H1N1), MDCK cells, plaque reduction; read-out: IC50

Compound	IC50
COC(=O)OCOc1c2n(ccc1=O)N([C@@H]1c3ccccc3SCc3c1ccc(F)c3F)[C@@H]1COCCN1C2=O [Baloxavir marboxil, reference compound]	0.00967 ± 0.00112 µM
Cc1cc2nc(C)c(C(=O)O)n2cc1-c1ccc(-c2ccccc2)cc1 [Compound 11, 6-([1,1′-Biphenyl]-4-yl)-2,7-dimethylimidazo[1,2-a]pyridine-3-carboxylic acid]	0.85 ± 0.05 µM
Cc1nc2ccc(-c3ccc(-c4ccccc4)cc3)cn2c1C(=O)O [Compound 12, 6-([1,1′-Biphenyl]-4-yl)-2-methylimidazo[1,2-a]pyridine-3-carboxylic acid]	> 100 µM
Cc1nc2ncc(-c3ccc(-c4ccccc4)cc3)cn2c1C(=O)O [Compound 13, 6-([1,1′-Biphenyl]-4-yl)-2-methylimidazo [1,2-a]pyrimidine-3-carboxylic acid]	1.08 ± 0.26 µM
CCOC(=O)c1c(C)nc2ccc(-c3ccc(-c4ccccc4)cc3)cn12 [Compound 14, Ethyl 6-([1,1′-biphenyl]-4-yl)-2-methylimidazo[1,2-a]pyridine-3-carboxylate]	> 200 µM
CCOC(=O)c1c(C)nc2cc(C)c(-c3ccc(-c4ccccc4)cc3)cn12 [Compound 15, Ethyl 6-([1,1′-biphenyl]-4-yl)-2,7-dimethylimidazo[1,2-a]pyridine-3-carboxylate]	> 200 µM
CCOC(=O)c1c(C)nc2ncc(-c3ccc(-c4ccccc4)cc3)cn12 [Compound 16, Ethyl 6-([1,1′-biphenyl]-4-yl)-2-methylimidazo[1,2-a]pyrimidine-3-carboxylate]	> 200 µM
C/C(O)=C(\C#N)C(=O)Nc1ccc(C(F)(F)F)cc1 [Compound 17, teriflunomide, reference compound]	35 ± 3.33 µM

test system: human lung organoids; test: not given; conditions: viral replication in human lung organoids; cited from earlier work

Compound	EC50
CCn1c(CO)nn(-c2cc(O[C@@H](C)C(F)(F)F)c(C(=O)Nc3c(F)cccc3Cl)cc2F)c1=O [BAY 2402234]	32 nM

test system: DENV and ZIKV viruses; test: not given; parameters: method as in PMID 33716051; conditions: cited from earlier work

Compound	EC50
Cc1c(-c2ccc(-c3ccccc3F)cc2)nc2ccc(F)cc2c1C(=O)O [Compound 18, brequinar]	17 to 61 nM

molecular target: human DHODH (Homo sapiens, UniProt Q02127); test: Surface plasmon resonance binding; conditions: SPR
Sequence (Q02127 whole entry): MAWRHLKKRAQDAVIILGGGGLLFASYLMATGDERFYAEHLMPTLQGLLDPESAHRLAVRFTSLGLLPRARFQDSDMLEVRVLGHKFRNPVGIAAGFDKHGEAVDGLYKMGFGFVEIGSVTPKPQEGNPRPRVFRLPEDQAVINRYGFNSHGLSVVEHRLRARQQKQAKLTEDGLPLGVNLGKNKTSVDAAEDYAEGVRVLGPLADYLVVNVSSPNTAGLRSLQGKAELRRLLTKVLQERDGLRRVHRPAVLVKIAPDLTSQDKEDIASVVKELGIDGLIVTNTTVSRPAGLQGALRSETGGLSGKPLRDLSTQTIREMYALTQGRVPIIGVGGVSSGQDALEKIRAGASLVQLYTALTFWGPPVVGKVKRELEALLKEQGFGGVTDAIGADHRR

Compound	Ka, association constant
Cc1c(-c2ccc(-c3ccccc3F)cc2)nc2ccc(F)cc2c1C(=O)O [Compound 18, brequinar]	1.31 × 10^6 M^−1S^−1

same assay, conditions: read-out: Ka, association constant

Compound	kon
Cc1cc2nc(C)c(C(=O)O)n2cc1-c1ccc(-c2ccccc2)cc1 [Compound 11, 6-([1,1′-Biphenyl]-4-yl)-2,7-dimethylimidazo[1,2-a]pyridine-3-carboxylic acid]	4.83e+06 M⁻¹ s⁻¹

same assay, conditions: read-out: Kdis, dissociation constant

Compound	koff
Cc1cc2nc(C)c(C(=O)O)n2cc1-c1ccc(-c2ccccc2)cc1 [Compound 11, 6-([1,1′-Biphenyl]-4-yl)-2,7-dimethylimidazo[1,2-a]pyridine-3-carboxylic acid]	29.3 s⁻¹

Source: paper PMC12472551, “Comprehensive Identification and Mechanistic Evaluation of Novel DHODH Inhibitors as Potent Broad-Spectrum Antiviral Agents” (Pharmaceuticals, 2025)
